Laboratory results reported in patent EP3981864A1, “DETERGENT COMPOSITION” (priority 2020, dated 2022).

Experiments:
Assay in all cases: Alpha-dioxygenase activity assay (oxygen consumption, TON)
Format in all cases: biochemical
Conditions in all cases: fatty acid 100 µM, enzyme 6 ppm, 50 mM HEPES pH 9.0, 37°C; initial rate of oxygen consumption / enzyme concentration
[1] = system: Phaeosphaeria nodorum αDOX (SEQ ID NO: 2), fatty acid alpha-dioxygenase, Q0URU2, N-terminal His-tag variant SEQ ID NO: 251
Excerpt: (§1) Phaeosphaeria nodorum αDOX (SEQ ID NO: 2) is a fatty acid alpha-dioxygenase that converts fatty acids into the corresponding 2-hydroperoxy fatty acids and is included as an example of the present invention. A codon optimized gene (SEQ ID NO: 250) encoding for an alpha-dioxygenase variant (SEQ ID NO: 251), including an N-terminal amino acid sequence containing a His-tag was designed and synthesized by Genscript. After gene synthesis, the protein was expressed and purified. In brief, the complete synthetic gene sequence was subcloned into a pET30a vector using the NdeI/HindIII cloning sites. For heterologous expression, Escherichia coli BL21 (DE3) cells were transformed with the recombinant plasmid and a single colony was inoculated into LB medium containing kanamycin (50 mg/L). A pre-starter culture was then inoculated into flasks containing Magic Media (Thermo Fisher, Catalog # K6803) supplemented with kanamycin (50 mg/L) and incubated at 16 °C for 72 h. At an OD600nm = 0.5 - 1.0, 5-aminolevulinic acid (final concentration 0.5 mM) was added. Cells were harvested by centrifugation at 5000 rpm and 4°C and the pellet was lysed using a bacterial cell lysis buffer (B-PER - Themo Fisher, Waltham, MA). After centrifugation, the supernatant was collected, and the protein was purified by one-step purification using HisPur™ Ni-NTA Spin Columns (Thermo Scientific, Catalog # 88226) and standard protocols known in the art. The protein was concentrated using a 10 kDa MW cutoff Amicon Ultra centrifugal filter unit (Millipore Sigma, Catalog# UFC901024), followed by desalting using a disposable PD-10 desalting column (GE Healthcare Life Sciences, Catalog# 17085101) and a buffer containing 50 mM Tris-HCl, 500 mM NaCl, and 10% Glycerol at pH 8.0. […]
(§2) Reactions with alpha-dioxygenases were performed as follows. […] The reaction was incubated for up to 10 minutes at 37°C with 200 rpm agitation and the conversion was monitored using an oxygen sensor. The TON (in s-1) were calculated as the ratio between the initial rate of oxygen consumption (in µM/s) and the concentration of enzyme (in µM). […]

[2] = system: Gossypium raimondii αDOX (SEQ ID NO: 5), fatty acid alpha-dioxygenase, A0A0D2W0W0, N-terminal His-tag variant SEQ ID NO: 257
Excerpt: as §1, with “Gossypium raimondii” for “Phaeosphaeria nodorum”, “5)” for “2)”, “256)” for “250)”, “257),” for “251),”
as §2

[3] = system: Medicago truncatula αDOX (SEQ ID NO: 9), fatty acid alpha-dioxygenase, A4PRI0, N-terminal His-tag variant SEQ ID NO: 265 (comparative)
Excerpt: as §1, with “Medicago truncatula αDOX” for “Phaeosphaeria nodorum αDOX”, “NO: 9)” for “NO: 2)”, “as a comparative” for “as an”, “NO: 264)” for “NO: 250)”, “NO: 265),” for “NO: 251),”
as §2

`CCCCCCCC/C=C\CCCCCCCC(=O)O` [Oleic Acid] was tested, and the “Oleic Acid, TON” value [1] was 0.99 s⁻¹, the “Oleic Acid, TON” value [2] was 1.68 s⁻¹ and the “Oleic Acid, TON” value [3] was 0.06 s⁻¹.

In the case of `CCCCCCCCCCCCCCCC(=O)O` [Palmitic Acid], the “Palmitic Acid, TON” value [1] is reported as 20.63 s⁻¹, the “Palmitic Acid, TON” value [2] is reported as 2.56 s⁻¹ and the “Palmitic Acid, TON” value [3] is reported as 0.57 s⁻¹.

For `CCCCCCCCCCCCCCCCCC(=O)O` [Stearic Acid], the “Stearic Acid, TON” value [1] was 8.80 s⁻¹, the “Stearic Acid, TON” value [2] was 1.68 s⁻¹ and the “Stearic Acid, TON” value [3] was 0.02 s⁻¹.
